Entries after “also recorded” stand apart in the source; their conditions may differ.
What was measured:
[1] = system: peripheral blood lymphocytes
[2] = system: peripheral blood T and B lymphocytes; conditions: single oral 0.24 mg/kg dose; cited from earlier work
[3] = system: hematopoietic stem cells; experiment: Live hematopoietic stem cells in naïve mice; conditions: 48 hours, low or high doses vs placebo
[4] = system: germinal centers; experiment: FITC-PNA staining of germinal centers in mouse spleen sections; type: in vivo; conditions: for HED dose from which germinal centers are reduced: acute dose, about; for Germinal Center staining intensity in spleen: 48 hours before spleen harvest
Protocol: FIG. 2. […] A graph of column plots of average Germinal Center staining intensity measured using immunofluorescent staining of fresh thick spleen sections stained with FITC-PNA is shown. Immunofluorescent intensity was calculated using thresholding and MetaMorph Image Analysis. Columns are average plus SEM.
The spleens were removed, weighed wet, and then fixed in 10% formalin. Subsequently the spleens were sectioned via proprietary methods and then incubated with FITC-PNA at 4 degC for 24 hours, washed, placed on slides and immunofluorescent images were captured. Metamorph software was used to quantify the immunofluorescent signal.

[5] = system: germinal centers; conditions: rats IV or PO 20, 40, 80 mg/kg (HED 3.23, 6.45, 12.9 mg/kg), 48 hours
Protocol: Column plots of the area per spleen of BCL-6 staining of 5 micron fixed spleen sections as a measure of germinal center numbers given as average per section are shown.
Formalin-fixed spleens were cross-sectioned in 5 pieces, trimmed and embedded in paraffin, sectioned and stained with hematoxylin and eosin (H&E). Measurements of the periarteriolar lymphoid sheath (PAL) diameter and the width of the marginal zone (MZ) in areas of white pulp that had PAL with the greatest diameter were measured using an ocular micrometer. BCL-6 immunohistochemical staining in rat spleens was evaluated to determine GC area using automated image analysis methods.

[6] = system: lymphocytes; experiment: Flow cytometry of blood cells in human patients before and 48 hours after oral 3 mg/kg dexamethasone base
Excerpt: FIG. 14. […] Each patient's pre-treatment values are connected to post-treatment values by a connecting line. CD4+ cells are also CD3+. CD8+ cells are also CD3+.
FIG. 15. […] Each patient's pre-treatment values are connected to post-treatment values by a connecting line. Tregs are identified by being CD3+CD4+CD25+FoxP3+. B lymphocytes are identified by being CD3−CD19+.
FIG. 16. […] Each patient's pre-treatment values are connected to post-treatment values by a connecting line. NK cells are identified by being CD3−CD16/56+. HSCs are identified by being CD34+CD38−.
(§1) Blood was drawn before drug treatment and 48 hours post-treatment for CBC analysis and flow cytometry to determine lymphocyte and other blood cell populations. Serum was analyzed for cytokine levels.

[7] = system: spleen cellularity; conditions: cited from earlier work
[8] = system: IL-2, IL-15, IL-6
Protocol: as §1

[9] = system: marginal zone; conditions: rats IV or PO 20, 40, 80 mg/kg (HED 3.23, 6.45, 12.9 mg/kg), 48 hours
Protocol: Formalin-fixed spleens were cross-sectioned in 5 pieces, trimmed and embedded in paraffin, sectioned and stained with hematoxylin and eosin (H&E). Measurements of the periarteriolar lymphoid sheath (PAL) diameter and the width of the marginal zone (MZ) in areas of white pulp that had PAL with the greatest diameter were measured using an ocular micrometer.

[10] = system: pemphigus; conditions: 100 mgs by 2 hour IV infusion daily for 3 days, every 28 days until cure; cited from earlier work
[11] = Double-blind controlled horse trial; type: in vivo; conditions: horses, acute high dose, out to 70 days
[12] = system: lymphocytes; experiment: Lymphodepletion in C57B1 female mice; type: in vivo, mouse; conditions: oral, HED 12, 15, 18 mg/kg tested
[13] = Clinical chemistries in mice; type: in vivo, mouse
[14] = system: bone marrow mesenchymal stem cells; experiment: Horse sternal bone marrow MSC number and trilineage differentiation; type: in vivo; conditions: horses, 6 mg/kg HED, one hour IV infusion, 48 hours
[15] = system: bone marrow mesenchymal stem cells; experiment: Human bone marrow MSC number by CFU-F; conditions: oral 3 mg/kg dexamethasone base, 48 hours, vs 31 historical controls
[16] = system: B lymphocytes; experiment: Treatment of patients with autoimmune diseases (Examples 5 and 9); type: in vivo, human; conditions: patient with an autoimmune disease, acute high dose
Protocol: Acute high dose prednisone doses range from about 19 mg/kg to about 150 mg/kg, with doses between about 56 mg/kg and about 112 mg/kg being preferred, with a repeat (second) administration of this dose 24 hours later and an optional repeat (third) administration of this dose 48-72 hours after the initial dose.

[17] = system: CD4+, CD8+, Tregs and B cells; experiment: Preliminary dose escalation studies in naïve mouse and rat models; type: in vivo
[18] = system: RBC; conditions: doses of about 24 mg/50 kg; cited from earlier work
[19] = pharmacodynamic (biologic); cited from earlier work
[20] = system: spleen weights or germinal centers; conditions: mice, po daily for 13 weeks; cited from earlier work
[21] = oral 3 mg/kg dexamethasone base, 48 hours

C[C@@H]1C[C@H]2[C@@H]3CCC4=CC(=O)C=C[C@]4(C)[C@@]3(F)[C@@H](O)C[C@]2(C)[C@@]1(O)C(=O)CO [dexamethasone]
CD3+ T lymphocytes ([1]; IP 10 mg/kg (HED 0.81 mg/kg) on day −6, −4, −2, control 3370): 2441 live events | B lymphocytes (CD3−CD19+ cells) in the peripheral blood ([1]; IP 10 mg/kg (HED 0.81 mg/kg) on day −6, −4, −2, vehicle control 10680): 3733 live events | reduction of B lymphocytes ([1]; IP 10 mg/kg (HED 0.81 mg/kg) on day −6, −4, −2, vs vehicle, significant): 65% | CD3+CD4+CD25+FoxP3+ Tregs ([1]; same dosing, control 198): 70 live events | CD3+CD8 T lymphocytes ([1]; same dosing, control 1318): 1277 live events | CD3+CD4+ T lymphocytes ([1]; same dosing, control 1779): 902 live events | suppression of peripheral blood T and B lymphocytes [2]: 80% | time at which recovery begins [2]: 12 h | time to normal levels [2]: ≤ 24 h | number of live hematopoietic stem cells [3]: did not significantly alter | HED dose from which germinal centers are reduced [4]: ≥ 6 mg/kg | HED dose from which germinal centers are reduced ([4]; listed as Dexamethasone): ≥ 3 mg/kg | Germinal Center staining intensity in spleen ([4]; mice, HED 6 mg/kg): Germinal center reduction is apparent | Germinal Center staining intensity in spleen ([4]; mice, HED 9 and 12 mg/kg): not significantly reduced until HED of 9 and 12 mg/kg doses; also recorded: significantly reduced | FITC-PNA immunofluorescence (germinal centers) in spleen ([4]; mice, IP HED 9.3 mg/kg dexamethasone base, 96 hours before spleen harvest): almost no immunofluorescent signal | germinal center area (BCL-6 staining) in spleen [5]: reduced at all dexamethasone doses | patients who showed lymphocytosis ([6]; 3 mg/kg HED): 50% | hematopoietic stem cells (CD34+CD38−) [6, 21]: spared | patients who depleted CD3, CD4 and CD8 positive lymphocytes [6, 21]: 2 of 4 | patients who depleted NK cells [6, 21]: 3 of 4 | patients who depleted Tregs and B lymphocytes [6, 21]: 1 of 4 | patients with lymphocytosis response in CD3 and CD4 lymphocytes ([6]; oral 3 mg/kg, 48 hours): 2 of 4 | patients with lymphocytosis response in CD8, B lymphocytes and NK cells ([6]; oral 3 mg/kg, 48 hours): 1 of 4 | patients who responded with lymphodepletion ([6]; oral 3 mg/kg, 48 hours, un-normalized flow cytometry data): 2 of the 4 | lymphodepletion in comparison to total body irradiation ([7]; HED 0.8 mg/kg on day −6, −4, −2): lymphodepleted equivalently to 5Gy TBI | reduced spleen cellularity ([7]; IP 10 mg/kg (HED 0.81 mg/kg) on day −6, −4, −2 before ACT): 99% | dose at which plasma IL-2 and IL-15 cytokine elevations are observed ([8]; dexamethasone base, HED, about): ≥ 3 mg/kg | patients with elevated levels of IL-2 [8, 21]: 3 of 4 | patients with elevated levels of IL-15 [8, 21]: 4 of 4 | patients with increased serum IL-2 and/or IL-15 levels [8, 21]: 100% | levels of plasma IL-2 and IL-15 cytokines ([8]; small number of human osteoarthritis patients, acute high dose): elevates | marginal zone area (width) in spleen [9]: reduced at all dexamethasone doses | relapse rate [10]: 15% | adverse side effects [11]: no adverse side effects were observed | dose above which lymphoablation is completely evident [12]: above 18 mg/kg | glucose level ([13]; after acute high dose dexamethasone): not elevated over the normal range | clinical chemistry levels including cholesterol and total protein ([13]; mice, acute oral HED doses 6-12 mg/kg): do not elevate clinical chemistry levels out of normal range | sternal BM MSC stem cell number [14]: doubled | ileac crest bone marrow MSC number (CFU-F per ml) [15]: almost two fold; also recorded: about twice as high | reduction of B lymphocyte numbers [16]: greater than 90% | reduction of memory B cell populations [16]: greater than 90% | effects of oral dosing compared to IV dosing ([17]; acute high dose): comparable effects | reduction in CD4+, CD8+, Tregs and B cells population ([17]; high doses, 48 hours after administration): ~98% | lymphodepletion ([17]; high-dose dexamethasone, naïve mouse and rat models): complete lymphodepletion

C[C@H]1C[C@H]2[C@@H]3CCC4=CC(=O)C=C[C@]4(C)[C@@]3(F)[C@@H](O)C[C@]2(C)[C@@]1(O)C(=O)CO [betamethasone]
effect on RBC [18]: reduces RBC

C[C@]12C=CC(=O)C=C1CC[C@@H]1[C@@H]2C(=O)C[C@@]2(C)[C@H]1CC[C@]2(O)C(=O)CO [prednisone]
biologic half-life [19]: about 20 hours | dose above which spleen weights or germinal centers are significantly impacted [20]: over 2.5 mg/kg | reduction of B lymphocyte numbers [16]: greater than 90% | reduction of memory B cell populations [16]: greater than 90%

Source: patent publication US11446314B2, “Immunoablative therapies” (AVM Biotechnology LLC, priority 2018, dated 2022)
